ChEMBL document CHEMBL1201862, “PubChem BioAssay data set” (2004)
Activity calls are given as the source filed them.

Experiments:
Candida albicans [1] = assay: growth inhibition of resistant C. albicans, dose response, CaCi-8 strain, fluconazole, dry powder, set 4 (AID 488950); type: functional, organism-based
Candida albicans [2] = assay: fluconazole resistance reversal in C. albicans, dose response, CaCi-2 strain, Alamar Blue, dry powder, set 4 (AID 488943); type: functional, organism-based
Candida albicans [3] = assay: growth inhibition of azole-resistant C. albicans, dose response, CaCi-8 strain, Alamar Blue, dry powder, set 2 (AID 488909); type: functional, organism-based
Escherichia coli = assay: microbe, parasite or virus in culture
INS1 = assay: beta cell apoptosis inhibitors, cytokine rescue, dose response, luminescence, retest (AID 449756); type: functional, cell-based; details: Rattus norvegicus;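 also: cell death triggered by IL-1 beta plus TNF-alpha plus IFN-gamma mixture; protective hits raise ATP signal compared with cytokine alone wells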
[4] = biological target: T1, Microphthalmia-associated transcription factor (Homo sapiens, UniProt O75030); assay: TRPM1 promoter luciferase signal decrease, dose response, MITF inhibitor project, cell-based, SK-MEL-5, cherry-picked, set 3 (AID 493073); type: functional
T1 sequence (O75030 whole entry): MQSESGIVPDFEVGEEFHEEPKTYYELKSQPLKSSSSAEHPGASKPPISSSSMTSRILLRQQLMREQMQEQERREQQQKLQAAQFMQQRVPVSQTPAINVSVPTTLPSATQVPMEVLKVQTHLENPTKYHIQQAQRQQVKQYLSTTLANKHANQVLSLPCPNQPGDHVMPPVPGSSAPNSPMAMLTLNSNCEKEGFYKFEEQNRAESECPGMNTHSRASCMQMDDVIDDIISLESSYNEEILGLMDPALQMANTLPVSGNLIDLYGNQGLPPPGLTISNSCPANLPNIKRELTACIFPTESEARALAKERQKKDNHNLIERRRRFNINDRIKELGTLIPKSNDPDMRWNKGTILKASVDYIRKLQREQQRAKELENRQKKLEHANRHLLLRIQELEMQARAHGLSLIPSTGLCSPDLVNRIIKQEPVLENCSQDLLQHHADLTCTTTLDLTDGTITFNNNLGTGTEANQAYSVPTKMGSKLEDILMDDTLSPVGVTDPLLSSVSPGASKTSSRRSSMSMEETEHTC

[5] = biological target: ATP-dependent molecular chaperone HSP82 (Candida albicans (strain WO-1) (Yeast), UniProt C4YTQ8); assay: loss of DOC-induced GRE-beta-galactosidase reporter signal, dose response, Hsp90 inhibitor project, S. cerevisiae, luminescence (AID 2400); type: functional, cell-based;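 also: beta-galactosidase luminescence from glucocorticoid response element reporter as proxy for Hsp90 function; inhibitor potency where signal loss means Hsp90 inhibition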
Sequence of ATP-dependent molecular chaperone HSP82 (C4YTQ8 whole entry): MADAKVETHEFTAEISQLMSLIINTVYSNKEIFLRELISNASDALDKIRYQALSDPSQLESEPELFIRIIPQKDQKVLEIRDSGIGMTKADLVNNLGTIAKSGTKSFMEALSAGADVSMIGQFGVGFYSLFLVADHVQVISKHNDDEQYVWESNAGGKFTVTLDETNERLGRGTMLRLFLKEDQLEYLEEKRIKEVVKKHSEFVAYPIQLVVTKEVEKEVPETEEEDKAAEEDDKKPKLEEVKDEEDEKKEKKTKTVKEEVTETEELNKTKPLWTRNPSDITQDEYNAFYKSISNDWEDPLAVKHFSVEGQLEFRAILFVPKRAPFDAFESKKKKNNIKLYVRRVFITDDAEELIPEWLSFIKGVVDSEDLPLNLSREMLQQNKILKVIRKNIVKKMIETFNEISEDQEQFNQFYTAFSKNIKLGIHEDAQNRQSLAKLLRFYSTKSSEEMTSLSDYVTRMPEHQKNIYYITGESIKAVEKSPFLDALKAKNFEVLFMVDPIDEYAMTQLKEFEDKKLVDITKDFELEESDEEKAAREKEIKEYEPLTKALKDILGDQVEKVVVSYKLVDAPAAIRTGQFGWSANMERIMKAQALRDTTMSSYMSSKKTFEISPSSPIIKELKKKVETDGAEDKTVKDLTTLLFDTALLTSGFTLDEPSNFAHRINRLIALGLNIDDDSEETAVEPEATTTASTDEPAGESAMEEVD

A-375 = assay: MITF: Counter assay: A375 proliferation Measured in Cell-Based System Using Plate Reader - 2084-03_Inhibitor_Dose_DryPowder_Activity. [Related pubchem assays (depositor defined):AID488944]; type: functional; details: Homo sapiens
cells [6] = type: functional, cell-based
[7] = biological target: T2, Serine/threonine-protein phosphatase (Candida dubliniensis (strain CD36 / CBS 7987 / NCPF 3949 / NRRLY-17841) (Yeast), UniProt B9W6M3); assay: calcineurin pathway inhibitors in yeast reporter, dose response, S. cerevisiae, CDRE-lacZ, luminescence, secondary (AID 2388); type: functional, cell-based;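 also: yeast reporter cells carrying a calcineurin-responsive lacZ construct stimulated with calcium chloride; luminescent beta-galactosidase reporter signal in whole cells rather than isolated phosphatase activity; potency for inhibition where a drop in reporter signal means calcineurin blockade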
T2 sequence (B9W6M3 whole entry): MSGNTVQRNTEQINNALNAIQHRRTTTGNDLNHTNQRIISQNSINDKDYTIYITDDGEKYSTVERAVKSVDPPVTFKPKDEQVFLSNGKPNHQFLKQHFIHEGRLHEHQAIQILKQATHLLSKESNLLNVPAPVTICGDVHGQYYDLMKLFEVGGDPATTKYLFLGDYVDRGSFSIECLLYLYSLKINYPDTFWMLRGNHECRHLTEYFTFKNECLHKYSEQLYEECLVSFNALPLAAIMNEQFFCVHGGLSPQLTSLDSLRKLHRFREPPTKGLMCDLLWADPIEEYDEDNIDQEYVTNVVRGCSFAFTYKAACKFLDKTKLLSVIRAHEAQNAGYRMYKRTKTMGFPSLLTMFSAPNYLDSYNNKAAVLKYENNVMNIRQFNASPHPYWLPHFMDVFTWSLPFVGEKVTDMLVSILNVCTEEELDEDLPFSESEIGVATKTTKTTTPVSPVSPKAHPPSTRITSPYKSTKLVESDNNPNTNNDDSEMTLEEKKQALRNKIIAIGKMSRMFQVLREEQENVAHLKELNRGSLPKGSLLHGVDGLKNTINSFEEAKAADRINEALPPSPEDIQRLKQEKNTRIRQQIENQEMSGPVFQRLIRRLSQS

[8] = C. albicans growth with fluconazole, confirmation, fluorescence, retest (AID 2467); type: functional, cell-based
[9] = NIH-3T3 fibroblast cytotoxicity, dose response, cytotoxicity control, cell-based, fluorescence, Alamar Blue, secondary assay (AID 2327); type: functional;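 also: NIH-3T3 mouse fibroblasts cultured with fluconazole at 8 µg/mL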
cells [10] = type: functional, cell-based; remark: listed apart in the source

With `COc1ccc2c(N3CCN(C(=O)c4ccc(Cl)cc4)CC3)ccnc2c1` the AC50 (Candida albicans [1]) was 8.86 µM (active), the AC50 (Candida albicans [2]) was 12.4 µM (active) and the AC50 (Candida albicans [3]) was 18.4 µM (active).

With `CCc1nc2nc(C)c(NS(=O)(=O)c3ccc(Cl)s3)c(O)n2n1` the AC50 (Escherichia coli) was 65.8 µM (active).

In the case of `CCN(CC)c1ccc(/C=N/NC(=O)c2cccc(S(=O)(=O)N3CCOCC3)c2)c(O)c1`, the AC50 (INS1) is reported as 0.358 µM (active), the AC50 [4] is reported as 1.52 µM (active) and the EC50 [5] is reported as > 160 µM (inactive). For the same molecule, the AC50 (A-375) was 47.2 µM (active), the EC50 (cells [6]) was 2.85 µM (active) and the EC50 [7] was > 180 µM (inactive). For the same molecule, the EC50 [8] was 0.769 µM (active), the EC50 [9] was 12.5 µM (inconclusive) and the EC50 (cells [10]) was 28.5 µM (active).
